US20250222003A1, “PHARMACEUTICAL COMPOSITION FOR TREATING SOLID TUMORS” (Eisai R&D Management Co., Ltd., priority 2021, published 2025)

System: patients with a solid tumor
Test: Suppression of nausea or vomiting associated with administration of Compound A by antiemetics
Assay type: in vivo, human
Settings: for number of subjects in which vomiting could not be suppressed: Compound A 160 mg BID; for number of subjects in which vomiting could not be suppressed / number of subjects in which vomiting could be suppressed / number of subjects showing improvement after switch from non-5-HT3 antiemetic to the 5-HT3 receptor antagonist: ramosetron or granisetron; for number of subjects in which vomiting could be suppressed / number of subjects showing improvement after switch from non-5-HT3 antiemetic to the 5-HT3 receptor antagonist / number of subjects that did not show improvement of vomiting after the antiemetic: of 20 subjects; for number of subjects showing improvement of vomiting by the antiemetic: of 20 subjects complaining of vomiting during Cycle 1, prochlorperazine or metoclopramide; for number of subjects that did not show improvement of vomiting after the antiemetic: domperidone, metoclopramide or prochlorperazine
Source text: For subjects of administration that had the gastrointestinal symptoms, nausea or vomiting, the results of administration of various antiemetics were investigated to determine whether they could suppress the occurrence of nausea or vomiting. The antiemetics used were domperidone ([…], Nauzelin tablet), metoclopramide (peripheral D2 receptor antagonist, metoclopramide tablet), ramosetron hydrochloride (5-HT3 receptor antagonist, Nasea tablet), granisetron (5-HT3 receptor antagonist (Kytril tablet), and the like.
The antiemetics were timely administered to 20 subjects of administration that complained of vomiting during Cycle 1.
FIGS. 1 and 2 are graphs showing the relationship between Cmax(Cmax,ss) or AUC (AUC(0-tau),ss) and the vomiting flag for each test subject at the time of CID8. For example, the vomiting flag 3 means a case in which treatment with an antiemetic other than the 5-HT3 receptor antagonist was first attempted but vomiting could not be suppressed, and vomiting could be suppressed when the antiemetic was switched to the 5-HT3 receptor antagonist.
Five additional patients were investigated whether the occurrence of nausea or vomiting, which is an adverse event having a causal relationship with Compound A, could be suppressed. Ramosetron hydrochloride or granisetron hydrochloride (5-HT3 receptor antagonist) was administered to four patients of administration that complained of vomiting during Cycle 1. Of the four patients that complained of vomiting, three patients received granisetron hydrochloride to prevent the gastrointestinal symptoms (nausea, vomiting) associated with administration of Compound A.

SMILES | number of subjects in which vomiting could not be suppressed | number of test subjects in which vomiting could be suppressed when given after symptoms of nausea or vomiting (additional patients, Compound A 120 mg BID) | vomiting after prophylactic administration (additional patients, Compound A 120 mg BID, three patients) | number of subjects in which vomiting could be suppressed | number of subjects showing improvement after switch from non-5-HT3 antiemetic to the 5-HT3 receptor antagonist | number of subjects in which vomiting could be prevented when given at onset of nausea (of the twelve subjects) | number of subjects showing improvement of vomiting by the antiemetic | number of subjects that did not show improvement of vomiting after the antiemetic
CN1[C@@H]2CCC[C@H]1C[C@@H](NC(=O)c1nn(C)c3ccccc13)C2.Cl [granisetron, 1-methyl-N-(endo-9-methyl-9-azabicyclo[3.3.1]non-3-yl)-1H-indazole-3-carboxamide hydrochloride] | two | one | no vomiting occurred afterwards | twelve | four | two | – | –
Cl.Cn1cc(C(=O)[C@@H]2CCc3[nH]cnc3C2)c2ccccc21 [ramosetron, (−)-(R)-5-[(1-methyl-1H-indol-3-yl)carbonyl]-4,5,6,7-tetrahydro-1H-benzimidazole monohydrochloride] | two | – | – | twelve | four | – | – | –
CN1CCN(CCCN2c3ccccc3Sc3ccc(Cl)cc32)CC1 [prochlorperazine] | – | – | – | – | – | – | Two | four
CCN(CC)CCNC(=O)c1cc(Cl)c(N)cc1OC [metoclopramide] | – | – | – | – | – | – | Two | four
O=c1[nH]c2ccccc2n1CCCN1CCC(n2c(=O)[nH]c3cc(Cl)ccc32)CC1 [domperidone] | – | – | – | – | – | – | – | four
